According to patent publication US20080131867A1, “Method for Determining the Effectiveness of a Treatment for Preeclampsia” (priority 2006, published 2008):

What was measured:
[1] = system: PP13 release from placenta explants; test: Therapeutic effectiveness on PP13 release from standardized placenta explants in presence of patient serum (indirect method); assay type: cell-based, human
Description: Scenario 1: Simple Direct Tailoring with a Diversity of Drugs. • We have standardized culture conditions for first trimester explants or explants obtained after delivery. • Explants could be the ones made of patients after delivery or those obtained by Chorionic villi sampling (CVS) at gestational weeks 10-12 or other placenta biopsies as the case may be. • Standardization means defined median viability index, protein content in the explant, total protein released to the medium, PP13 content in the explant and PP13 release from the explant, among others. • Drug effect in-vitro is the effect of drug applied to the culture medium on PP13 release from the placenta explant after 24 hr to 7 days. The effect is compared to the baseline release as measured without the drug. • The Therapeutic Index is thus the in-vitro relative effectiveness of the drug when applied to explants as measured by the difference between PP13 release with (PP13D1) and without (PP130) the drug by the equation: (PP130−PP13D1)/PP130, after normalizing to viability, protein content etc as described above, given all other parameters are the same. • It is important to note that in the first trimester (gestational weeks 6-13) PP13 in diseased patient is lower than Normal. Thus the therapeutic index is to return PP13 release is calculated as drugs that elevate PP13 release. In the third trimester (gestational week 26 and above), PP13 is higher in preeclamptic patients than normal. Thus the therapeutic index is decreasing PP13 release back to Normal. • According to the in-vitro therapeutic index one drug or a drug combinations are selected for the in-vivo interventional medication treatment. • Follow up: after selecting the drug to be administrating to the patient, bi-weekly blood testing follow up is recommended to be carried out by measuring the PP13 in the blood and calculating
If so, drugs that appears beneficial to standardized culture explants wouldn't work when applied together with the patient samples. It can be seen that the serum from the patient at high risk for preeclampsia caused serious inhibition of many of the types of treatment.

PP13 [2] = test: Allocation of high-risk women to serum PP13 quartiles after low dose aspirin; assay type: in vivo, human; conditions: for Frequency of 1st quartile cases / Frequency of 2nd quartile cases / Frequency of 3rd quartile cases: high-risk women
Protocol: (§1) Unless otherwise indicated, in all experiments, PP13 was measured (blinded to pregnancy outcome) in maternal venous serum by solid-phase sandwich ELISA assay. The PP13 level was calibrated according to standard curves prepared from calibrated standards of recombinant PP13. Concentrations are given in pg PP13/ml serum.
First trimester PP13 could serve as a measure to assess the risk for a later development of preeclampsia. According to FIG. 2 and Table 1, in the first trimester, the majority of the women who will go on to develop preeclampsia have very low levels of PP13 while most women who will have a normal outcome have higher PP13 values. In one study summarized in Table 2 and FIG. 3, the PP13 level was measured at 8 weeks of gestation from 50 cases who went on to develop preeclampsia and in 290 cases with normal outcome. The method of multiples of the gestation-specific median (MoM) was used, and at MoM cutoffs of 0.45, the false positive rate was 10% and the sensitivity 87%. This means that 43 out of 50 preeclampsia cases and 29 out of 290 normal were identified as being at high risk. Thus, while the risk for PP13 in the population is 5%, in the group with PP13 below 0.45, the frequency of preeclampsia was 59% (more than 10 times above the frequency in the population not tested).
Sensitivity and specificity were calculated from the receiver operating characteristic (ROC) analysis based on the indicated MoM cutoffs of 0.45. Sensitivity value is provided in Table 2 in percentile for 10% false positive rate. The odds ratio for developing the pathology was determined by two methods of calculations:
1) modeling, that calculate the Odds ratio as already described above after taking into consideration the prevalence of the pathology in the population, and
2) the quartile assessment procedure, of calculating of the odds ratio for the development of preeclampsia based on the comparison of PP13 in the lowest quartile (25%) versus PP13 in the third quartile (75th percent).
(§2) If in the period specified above a medication is used, it is anticipated that it will bring a woman's PP13 level to the 2nd or 3rd or even the 4th quartile, corresponding to their reduced likelihood of developing preeclampsia. In the example described in Table 2, women with elevated risk to develop preeclampsia were orally treated from GW8 with a dose of […] aspirin (“low dose aspirin”) for either 2 or 3 weeks. […] Accordingly, women who were treated were anticipated to have lower risk to develop preeclampsia and their outcome should also be improved.
(§3) In the study shown in Table 2, of 150 women tested as being at high risk in the 8th week, 50 were not treated, 50 were treated with aspirin for two weeks and 50 were treated for 3 weeks. […] The calculation of their anticipated risk was reduced accordingly.
Sensitivity in percentile values are shown when the specificity was fixed to 90% (95% CI: 86%-93%), corresponding to having […] cases of false positives (10%).

[3] = system: women with elevated risk to develop preeclampsia; test: Delivery outcome of high-risk women treated with low dose aspirin; assay type: in vivo, human; conditions: for Outcome: Normal (number of women) / Outcome: Preeclampsia (number of women): 50 treated
Protocol: as §2, §3

[4] = system: PP13 release from placental (villous) explants; test: PP13 release from placental (villous) explants cultured 48 hours (FIGS. 7-11); assay type: cell-based, human
Protocol: The tissue of each woman was divided into 16 different portions, exposed each to diversified conditions and cultured for 48 hours;
The following results were obtained with placental (villous) explants from 16 cases of normal women, 12 cases of preeclampsia and 3 cases of HELLP women, which were cultured in DMEM/F12 for 48 hours at 6% or 20% O2. Conditioned media was collected after culture and tested for total protein and PP13. PP13 release was related to total protein.
The explants tested in Example 6 were retested using, in addition to the two oxygen levels, two different levels of magnesium, 0.7 mM and 1.4 mM.
Note that the latter combination also affected the HELLP cases. […]

[5] = system: PP13 release from cultured chorionic villi; test: PP13 release from cultured chorionic villi of GW 9-10 (48 hr culture, ELISA); assay type: cell-based, human; conditions: for PP13 (pg/ml) release: 48 hr
Protocol: From left to right, the explants are shown at transfer (6 hours) and after 36 hr in culture. Cultures are grown in conditioned medium. After 48 hr in culture, the supernatant is collected, centrifuged and the […] is diluted in PBS and checked for the concentration of PP13 by sandwich ELISA using PP13 standards to calibrate the reaction OD to PP13 concentration. The PP13 level may be normalized to the gestational age according to the linear regression of the total points and to the protein level of the explant; […] The placenta cells/explants were cultured for 48 hr and PP13 was measured in the culture medium by ELISA (in the same manner as described in FIG. 1).

PP13 [6] = test: Serum PP13 values and 1st-to-2nd trimester slope in women treated with vitamin E (FIG. 4); assay type: in vivo, human
Protocol: as §1
The slope may be calculated as follows:
Slope=(PP13(2nd trimester)−PP13(1st trimester)/GW(2nd trimester)−GW(1st trimester)).
Normal vs. preeclampsia slopes are shown in FIG. 4, and the cutoff between normal and preeclampsia to reach 80% sensitivity is a slope of 3.5. The slope helps to further verify the risk for preeclampsia.
If after establishing the risk by two tests the women at high risk are treated daily by administering the anti-oxidant vitamin E, the treated women have a lower slope (FIG. 4). From the relatively large confidence level one can see that not all women were affected in the same way. Thus, the approach can be further used to enable one to see how the slope can be reduced by medications and its correlation to the reduced risk to develop the pathology, thereby considering discontinuing the treatment, elevating the drug level or selecting a different treatment for individual patients. The combined and contingent approaches indicate that multiple testing is necessary only for women at risk whereas low risk patients may avoid repeated testing.

[7] = applied with serum from a Normal Patient
[8] = applied with serum from a Patient at high risk for preeclampsia

Molecule: CC(=O)Oc1ccccc1C(=O)O [Aspirin, salicylic acid (aspirin)]
- Therapeutic Effectiveness on PP13 release from placenta explants [1, 7]: 74%
- Therapeutic Effectiveness on PP13 release from placenta explants [1, 8]: 40%
- Odds ratio (by modeling) for developing preeclampsia (PP13 [2]; 14 days aspirin): 5.9
- Odds ratio (by quartiles) for developing preeclampsia (PP13 [2]; 14 days aspirin): 5.6
- Frequency of 1st quartile cases (PP13 [2]; 14 days aspirin): 20/50
- Frequency of 2nd quartile cases (PP13 [2]; 14 days aspirin): 24/45
- Frequency of 3rd quartile cases (PP13 [2]; 14 days aspirin): 5/50
- Odds ratio (by modeling) for developing preeclampsia (PP13 [2]; 21 days aspirin): 3.3
- Odds ratio (by quartiles) for developing preeclampsia (PP13 [2]; 21 days aspirin): 3.2
- Frequency of 1st quartile cases (PP13 [2]; 21 days aspirin): 14/50
- Frequency of 2nd quartile cases (PP13 [2]; 21 days aspirin): 30/50
- Frequency of 3rd quartile cases (PP13 [2]; 21 days aspirin): 5/50
- Numbers of patients in the 2nd and 3rd PP13 quartiles compared to the first quartile (PP13 [2]; aspirin for 2 or 3 weeks): elevated significantly
- Outcome: Normal (number of women) ([3]; 14 days aspirin): 26 Normal
- Outcome: Preeclampsia (number of women) ([3]; 14 days aspirin): 24 Preeclampsia
- Outcome: Normal (number of women) ([3]; 21 days aspirin): 33 Normal
- Outcome: Preeclampsia (number of women) ([3]; 21 days aspirin): 18 Preeclampsia
- Number of preeclampsia cases, treated vs. untreated groups ([3]; aspirin for 2 or 3 weeks): significantly lower

Molecule: O=O [Oxygen, oxygen]
- Effect on PP13 release ([4]; explants from HELLP cases, 20% vs 6% oxygen, 48 hours, listed as O2): reduced by 20% O2 to below the normal level
- Effect on PP13 release ([4]; explants from HELLP cases, 20% vs 6% oxygen, 48 hours, listed as hyperoxia): almost complete halt in PP13 release
- Effect on PP13 release ([4]; explants from normal women, 20% vs 6% oxygen, 48 hours): no effect
- Effect on PP13 release ([4]; explants from normal women, 20% vs 6% oxygen, 48 hours, listed as hyperoxia): remained at the same level
- Effect on PP13 release ([4]; explants from preeclampsia women, 20% vs 6% oxygen, 48 hours): decreased significantly
- Effect on PP13 release ([4]; explants from preeclampsia women, 20% vs 6% oxygen, 48 hours, listed as hyperoxia): significantly less PP13 release
- Increase of PP13 release under 20% oxygen compared to 6% oxygen ([5]; 3 high risk women, no vitamin C): ~2 factor
- PP13 (pg/ml) release ([5]; Case 1, normal risk, 20% oxygen (hyperoxia), no vitamin C): 14,250 pg/ml
- PP13 (pg/ml) release ([5]; Case 2, normal risk, 20% oxygen (hyperoxia), no vitamin C): 15,500 pg/ml
- PP13 (pg/ml) release ([5]; Case 3, high-risk (preeclampsia), 20% oxygen (hyperoxia), no vitamin C): 5,000 pg/ml
- PP13 (pg/ml) release ([5]; Case 3, high-risk (preeclampsia), 20% oxygen (hyperoxia), no vitamin C, listed as oxygen): 5000 pg/mL
- PP13 (pg/ml) release ([5]; Case 4, high-risk (preeclampsia), 20% oxygen (hyperoxia), no vitamin C): 4,300 pg/ml
- PP13 (pg/ml) release ([5]; Case 5, high-risk (preeclampsia), 20% oxygen (hyperoxia), no vitamin C): 7,900 pg/ml

Molecule: aprotinin
- Effect on PP13 release ([4]; HELLP explants, normoxia and high Mg (FIG. 11B)): almost back to normal

Molecule: vitamin E
- Therapeutic Effectiveness on PP13 release from placenta explants [1, 7]: 30%
- Therapeutic Effectiveness on PP13 release from placenta explants [1, 8]: 0%
- Effect on PP13 (PP13 [6]; 16-20 weeks, vitamin E): no significant effect
- Effect on PP13 level/release (PP13 [6]; cases of preeclampsia, 6-10 weeks, early application of vitamin E): doubles PP13 release towards the normal level
- Effect on PP13 release (PP13 [6]; normal patients, 6-10 weeks, vitamin E): without affecting PP13 release
- Effect on PP13 release (PP13 [6]; preeclamptic women, 24-28 weeks, vitamin E): reduces PP13 release back to the normal level
- PP13 slope (1st-to-2nd trimester) (PP13 [6]; women at high risk treated daily with vitamin E): lower slope

Molecule: heparin
- Therapeutic Effectiveness on PP13 release from placenta explants [1, 7]: 56%
- Therapeutic Effectiveness on PP13 release from placenta explants [1, 8]: 20%
- Effect on PP13 release ([4]; hyperoxia and normal Mg (FIG. 11C)): almost back to normal

Molecule: O=C1O[C@H]([C@@H](O)CO)C(O)=C1O [Vitamin C, vitamin C]
- Increase of PP13 release with vitamin C vs. without ([5]; 3 high risk women, 6% oxygen, 48 hours incubation): 3-4 times
- PP13 (pg/ml) release ([5]; Case 1, normal risk, 6% oxygen, with vitamin C): 14,300 pg/ml
- PP13 (pg/ml) release ([5]; Case 1, normal risk, 20% oxygen, with vitamin C): 14990 pg/mL
- PP13 (pg/ml) release ([5]; Case 2, normal risk, 6% oxygen, with vitamin C): 15,390 pg/ml
- PP13 (pg/ml) release ([5]; Case 2, normal risk, 20% oxygen, with vitamin C): 15,300 pg/ml
- PP13 (pg/ml) release ([5]; Case 3, high-risk (preeclampsia), 6% oxygen, with vitamin C): 12,030 pg/ml
- PP13 (pg/ml) release ([5]; Case 3, high-risk (preeclampsia), 20% oxygen, with vitamin C): 5,100 pg/ml
- PP13 (pg/ml) release ([5]; Case 4, high-risk (preeclampsia), 6% oxygen, with vitamin C): 9,230 pg/ml
- PP13 (pg/ml) release ([5]; Case 4, high-risk (preeclampsia), 20% oxygen, with vitamin C): 4,421 pg/ml
- PP13 (pg/ml) release ([5]; Case 5, high-risk (preeclampsia), 6% oxygen, with vitamin C): 15760 pg/mL
- PP13 (pg/ml) release ([5]; Case 5, high-risk (preeclampsia), 6% oxygen, with vitamin C, listed as vitamin C): 15,790 pg/ml
- PP13 (pg/ml) release ([5]; Case 5, high-risk (preeclampsia), 20% oxygen, with vitamin C): 8,100 pg/ml
- Additional effect of vitamin C on PP13 release under 20% oxygen ([5]; high risk women, 20% oxygen (hyperoxia)): no additional effect

Molecule: [Cl-].[Cl-].[Mg+2] [Magnesium, MgCl2]
- Therapeutic Effectiveness on PP13 release from placenta explants [1, 7]: 50%
- Therapeutic Effectiveness on PP13 release from placenta explants [1, 8]: 20%
- Effect on PP13 release ([4]; HELLP explants, hyperoxia (20%), increase in Mg (1.4 mM)): elevated release of PP13
- Effect on PP13 release ([4]; HELLP explants, normoxia (6%), elevated Mg (1.4 mM)): elevated release of PP13
- Effect on PP13 release ([4]; explants from normal pregnant women, elevated oxygen (20%) and MgCl2 (1.4 mM)): not affected
- Effect on PP13 release ([4]; preeclamptic explants, magnesium 1.4 mM in 6% oxygen): not in 6% oxygen
- Effect on PP13 release ([4]; preeclamptic explants, magnesium 1.4 mM in 20% oxygen): brought back to the normal level
